Data on 37 compounds can be found in patent publication US9963452B2, “Methods, compounds, and compositions for inhibition of ROS” (AUGUSTA PHARMACEUTICALS INC., priority 2013, dated 2018).

Test [1] deals with T1, ROS (Homo sapiens, UniProt P08922). The note with it: reported in background; cited from earlier work.
Another test deals with T2, EGFR (Homo sapiens, UniProt P00533).
T2 construct: ROS or EGFR enzyme, 0.008 ng/ul
The test can be described thus: In vitro EGFR enzymatic reaction assay (HTRF, Cisbio). The test is classed as biochemical.

Test [2] concerns the target T1, ROS. Description: In vitro ROS enzymatic reaction assay (HTRF, Cisbio). The note with it: for inhibition at 5 µM: ROS kinase, compound at 5 uM, read-out: Kinase Inhib. 5 uM (%). Details: ROS or EGFR enzyme, 0.008 ng/ul. In kind it is biochemical. As for the experimental part:
The ROS enzymatic reactions were carried out with a high throughput screening platform for phosphor-detection of kinase activity. This platform based on homogeneous time resolved fluorescence (HTRF) technology from Cisbio Bioassays, Inc. (Cisbio). […] The reaction was allowed to proceed for 30 minutes at room temperature. An equal volume of detection buffer was then added to the reaction mix.
Background: Time-resolved FRET reads energy transfer from a long-lived donor to a nearby acceptor.

Test [3] has as its system U138 glioblastoma cell line. The test can be described thus: In-vitro cell survival assay (Alamar blue), U138. In kind it is cell-based. The note with it: 24 h; U138, one day after compound addition. In short, it runs like this:
(§1)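 Cells seeded at 2-5×10^3 per well, grown 2 days, then exposed to compound at 100, 10 or 1 uM (0.5% DMSO final) for one day. Alamar blue redox dye read as proliferation/viability, normalized to vehicle wells as percent decrease and converted to EC50.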
For orientation: The colour change of resazurin is a common sign of viable cells or microbes.

For test [4], the system named is HeLa cervical cancer cell line. The test can be described thus: In-vitro cell survival assay (Alamar blue), HeLa. In kind it is cell-based. The note with it: Homo sapiens, 24 h, one day after compound addition. In short, it runs like this: as §1
For test [5], the system named is U87 glioblastoma cell line. Description: In-vitro cell survival assay (Alamar blue), U87. In kind it is cell-based. The conditions noted are these: 24 h; U87, one day after compound addition. In short, it runs like this: as §1
Test [6] deals with LN18 glioblastoma cell line. Description: In-vitro cell survival assay (Alamar blue), LN18. The conditions noted are these: Homo sapiens, LN-18, 24 h; LN18, one day after compound addition. The test is classed as cell-based. The method in brief: as §1
The test system of test [7] is U118 glioblastoma cell line. Description: In-vitro cell survival assay (Alamar blue), U118. In kind it is cell-based. The note with it: 24 h; U118, one day after compound addition. The method in brief:
as §1

The structures appear in SMILES notation. Where two headings read alike, the source gives them in different places. Bounds are passed on as bounds.

T2 sequence (P00533 25-1210, species assumed): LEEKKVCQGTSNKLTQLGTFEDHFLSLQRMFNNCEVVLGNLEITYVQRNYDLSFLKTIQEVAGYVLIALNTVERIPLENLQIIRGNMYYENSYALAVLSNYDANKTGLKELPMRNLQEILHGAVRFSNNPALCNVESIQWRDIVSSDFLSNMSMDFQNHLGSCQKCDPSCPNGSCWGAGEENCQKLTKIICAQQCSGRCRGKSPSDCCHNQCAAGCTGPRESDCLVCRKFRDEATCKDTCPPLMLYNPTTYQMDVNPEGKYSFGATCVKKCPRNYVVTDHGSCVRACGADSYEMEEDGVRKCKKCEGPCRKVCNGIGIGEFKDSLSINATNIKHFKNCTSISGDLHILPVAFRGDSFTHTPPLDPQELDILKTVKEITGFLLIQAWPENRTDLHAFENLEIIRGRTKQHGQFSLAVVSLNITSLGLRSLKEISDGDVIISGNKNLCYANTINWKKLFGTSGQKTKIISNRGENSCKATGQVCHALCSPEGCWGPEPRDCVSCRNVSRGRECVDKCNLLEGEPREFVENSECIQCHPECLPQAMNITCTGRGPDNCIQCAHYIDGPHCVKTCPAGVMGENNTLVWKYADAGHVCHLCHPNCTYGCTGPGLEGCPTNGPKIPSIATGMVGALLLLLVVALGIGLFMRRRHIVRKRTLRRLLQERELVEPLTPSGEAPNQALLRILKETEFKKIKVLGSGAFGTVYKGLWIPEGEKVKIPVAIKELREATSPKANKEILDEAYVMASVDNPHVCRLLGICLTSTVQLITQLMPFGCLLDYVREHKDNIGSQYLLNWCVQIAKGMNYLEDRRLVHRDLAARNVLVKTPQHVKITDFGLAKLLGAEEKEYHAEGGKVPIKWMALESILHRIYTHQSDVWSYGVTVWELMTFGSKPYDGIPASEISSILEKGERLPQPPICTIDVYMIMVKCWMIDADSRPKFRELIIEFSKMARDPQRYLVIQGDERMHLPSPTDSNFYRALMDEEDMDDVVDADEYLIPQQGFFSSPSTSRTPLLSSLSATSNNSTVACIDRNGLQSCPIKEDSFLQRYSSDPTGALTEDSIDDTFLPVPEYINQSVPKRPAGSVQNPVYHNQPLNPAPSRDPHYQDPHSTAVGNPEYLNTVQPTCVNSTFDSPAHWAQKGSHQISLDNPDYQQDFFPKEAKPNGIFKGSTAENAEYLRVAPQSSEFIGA
T1 sequence (P08922 28-2347): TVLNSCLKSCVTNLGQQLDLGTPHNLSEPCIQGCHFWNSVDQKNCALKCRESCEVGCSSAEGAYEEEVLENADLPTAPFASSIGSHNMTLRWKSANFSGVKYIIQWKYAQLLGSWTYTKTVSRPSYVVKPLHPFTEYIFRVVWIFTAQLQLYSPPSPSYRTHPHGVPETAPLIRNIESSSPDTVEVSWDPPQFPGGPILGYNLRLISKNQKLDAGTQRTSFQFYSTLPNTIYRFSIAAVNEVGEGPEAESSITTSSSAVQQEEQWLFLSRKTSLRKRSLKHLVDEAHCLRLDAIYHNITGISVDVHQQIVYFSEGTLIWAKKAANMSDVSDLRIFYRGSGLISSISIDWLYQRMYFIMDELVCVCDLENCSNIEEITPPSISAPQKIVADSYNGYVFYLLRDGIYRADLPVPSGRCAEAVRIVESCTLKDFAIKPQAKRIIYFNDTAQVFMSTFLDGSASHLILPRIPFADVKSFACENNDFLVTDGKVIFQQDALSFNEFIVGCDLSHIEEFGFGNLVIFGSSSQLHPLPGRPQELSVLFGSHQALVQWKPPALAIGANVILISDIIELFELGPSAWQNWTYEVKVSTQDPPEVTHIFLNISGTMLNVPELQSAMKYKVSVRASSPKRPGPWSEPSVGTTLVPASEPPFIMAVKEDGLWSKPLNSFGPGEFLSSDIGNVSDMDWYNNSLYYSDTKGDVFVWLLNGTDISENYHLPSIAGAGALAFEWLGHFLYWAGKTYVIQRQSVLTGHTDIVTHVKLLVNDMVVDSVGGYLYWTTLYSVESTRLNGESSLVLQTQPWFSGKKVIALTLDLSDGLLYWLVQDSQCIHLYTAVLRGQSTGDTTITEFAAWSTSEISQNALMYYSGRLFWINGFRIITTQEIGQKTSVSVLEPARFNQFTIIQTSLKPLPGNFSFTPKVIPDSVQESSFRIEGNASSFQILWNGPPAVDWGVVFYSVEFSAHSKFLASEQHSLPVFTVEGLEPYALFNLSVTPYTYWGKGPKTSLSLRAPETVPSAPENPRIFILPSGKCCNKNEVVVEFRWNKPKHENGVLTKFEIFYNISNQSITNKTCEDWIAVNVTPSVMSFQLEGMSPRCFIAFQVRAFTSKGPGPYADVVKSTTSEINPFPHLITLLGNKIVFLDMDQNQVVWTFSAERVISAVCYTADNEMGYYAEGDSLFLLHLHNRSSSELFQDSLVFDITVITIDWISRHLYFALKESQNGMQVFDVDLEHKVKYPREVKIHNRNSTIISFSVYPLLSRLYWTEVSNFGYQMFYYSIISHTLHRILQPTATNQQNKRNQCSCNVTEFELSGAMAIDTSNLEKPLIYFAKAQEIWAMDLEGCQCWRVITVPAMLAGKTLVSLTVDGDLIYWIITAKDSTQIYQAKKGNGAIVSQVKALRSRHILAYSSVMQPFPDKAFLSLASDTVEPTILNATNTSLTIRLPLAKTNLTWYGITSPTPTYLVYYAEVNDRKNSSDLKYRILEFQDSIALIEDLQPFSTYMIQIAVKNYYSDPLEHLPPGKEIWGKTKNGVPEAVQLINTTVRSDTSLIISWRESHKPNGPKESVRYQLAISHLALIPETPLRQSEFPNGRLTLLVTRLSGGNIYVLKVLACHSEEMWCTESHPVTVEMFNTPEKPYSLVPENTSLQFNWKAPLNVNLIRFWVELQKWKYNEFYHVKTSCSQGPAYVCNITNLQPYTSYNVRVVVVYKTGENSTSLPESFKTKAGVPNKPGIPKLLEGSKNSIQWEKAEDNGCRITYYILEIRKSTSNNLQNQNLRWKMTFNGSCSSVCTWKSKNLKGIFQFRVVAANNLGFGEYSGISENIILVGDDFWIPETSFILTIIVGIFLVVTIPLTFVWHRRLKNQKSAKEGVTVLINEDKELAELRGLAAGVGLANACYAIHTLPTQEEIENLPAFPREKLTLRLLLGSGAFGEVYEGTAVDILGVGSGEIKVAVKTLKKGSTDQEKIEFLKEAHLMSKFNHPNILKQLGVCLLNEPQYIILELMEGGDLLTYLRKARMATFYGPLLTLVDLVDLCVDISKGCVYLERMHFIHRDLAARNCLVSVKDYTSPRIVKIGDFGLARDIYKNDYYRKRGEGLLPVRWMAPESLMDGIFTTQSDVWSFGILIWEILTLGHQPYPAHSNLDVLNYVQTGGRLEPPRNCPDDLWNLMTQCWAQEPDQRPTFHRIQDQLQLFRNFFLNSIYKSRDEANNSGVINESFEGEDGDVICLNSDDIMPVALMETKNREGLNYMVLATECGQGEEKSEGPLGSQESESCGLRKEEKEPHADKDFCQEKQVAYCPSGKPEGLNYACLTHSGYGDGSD

What is called IC50 is the concentration at which inhibition is half-maximal. In the case of `Cc1cc(O)cc(-c2nn(CC#N)cc2-c2ccnc(-c3cccnc3)c2)c1` [KIST301080], the half-inhibitory concentration (IC50) at ROS [1] was 0.209 µM.
As to `Clc1nccc(Nc2cc(C3CC3)[nH]n2)n1` [drawing 298], the IC50 at EGFR is more than 50 µM. Moreover, at ROS [2], the IC50 worked out at 2.1 µM and the inhibition at 5 µM was 38.4%.
Turning to `Nc1ccc(Nc2nccc(Nc3cc(C4CC4)[nH]n3)n2)cc1` [drawing 299], the IC50 against EGFR was found to be 18.9 µM; against ROS [2] it was 0.045 µM. The inhibition at 5 µM on ROS [2] was 100%.
On the same counts, the results for `c1cc(Nc2cc(C3CC3)[nH]n2)nc(Nc2ccc(NCc3cc(C4OCCO4)c(C4OCCO4)s3)cc2)n1` [drawing 300] are more than 50 µM, 1.14 µM and 79.3%.
On the same counts, the results for `Nc1cccc(C2CCN(c3nccc(Nc4ccc5ncsc5c4)n3)CC2)c1` [drawing 302] are 4.7 µM, 0.048 µM and 101%.
As to `c1cc(Nc2nccc(Nc3ccc4ncsc4c3)n2)cc(C2CCNCC2)c1` [drawing 303], inhibition against EGFR was half-maximal at 4.6 µM (IC50). Besides, at ROS [2], 0.042 µM corresponded to half-maximal inhibition (IC50) and the inhibition at 5 µM is 100%.
The matching figures for `C1=C(c2cccc(Nc3nccc(Nc4ccc5ncsc5c4)n3)c2)CCNC1` [drawing 304]: more than 5 µM, 0.041 µM and 101%.
On the same counts, the results for `Brc1cccc(Nc2nccc(Nc3ccc4ncsc4c3)n2)c1` [drawing 305] are more than 5 µM, 0.017 µM and 90%.
The matching figures for `O=C(c1ccc(Nc2ncc(Cl)c(Nc3ccc4ncsc4c3)n2)cc1)N1CCCCC1` [drawing 306]: more than 5 µM, 0.07 µM and 87.9%.
`CN1CCN(C(=O)c2ccc(Nc3ncc(Cl)c(Nc4ccc5ncsc5c4)n3)cc2)CC1` [drawing 307] gave an IC50 against EGFR of more than 5 µM. On ROS [2], the IC50 was 0.405 µM and the inhibition at 5 µM was 92.2%.
For `O=C(O)c1ccc(Nc2ncc(Cl)c(Nc3ccc4ncsc4c3)n2)cc1` [drawing 308], the results for the IC50 against EGFR and at ROS [2] were 2.4 µM and 0.037 µM, respectively. Further, the inhibition at 5 µM at ROS [2] was determined as 101%.
`CC(C)(C)OC(=O)NC1CCN(C(=O)c2ccc(Nc3ncc(Cl)c(Nc4ccc5ncsc5c4)n3)cc2)CC1` [drawing 309] yielded an IC50 on EGFR of more than 5 µM. In addition, at ROS [2], the IC50 was more than 5 µM and the inhibition at 5 µM was 29.4%.
As for `O=C(O)c1cccc(Nc2ncc(Cl)c(Nc3ccc4ncsc4c3)n2)c1` [drawing 325], on EGFR, the IC50 was more than 5 µM. Further, on ROS [2], the IC50 was 0.189 µM and the inhibition at 5 µM was 100%.
On the same counts, the results for `NCC1CCN(C(=O)c2ccc(Nc3ncc(Cl)c(Nc4ccc5ncsc5c4)n3)cc2)CC1` [drawing 326] are more than 5 µM, 0.368 µM and 100%.
The matching figures for `NC1CCN(C(=O)c2ccc(Nc3ncc(Cl)c(Nc4ccc5ncsc5c4)n3)cc2)CC1` [drawing 327]: more than 5 µM, 0.444 µM and 100%.
On the same counts, the results for `O=C(c1cccc(Nc2ncc(Cl)c(Nc3ccc4ncsc4c3)n2)c1)N1CCCCC1` [drawing 328] are more than 5 µM, 0.24 µM and 100%.
As for `CN1CCN(C(=O)c2cccc(Nc3ncc(Cl)c(Nc4ccc5ncsc5c4)n3)c2)CC1` [drawing 329], the IC50 at EGFR was more than 5 µM. In addition, on ROS [2], inhibition was half-maximal at 0.33 µM (IC50) and the inhibition at 5 µM amounted to 100%.
The matching figures for `COc1ccc(C2=CCNCC2)cc1Nc1nccc(Nc2ccc3ncsc3c2)n1` [drawing 330]: 0.802 µM, 0.003 µM and 100%.
On the same counts, the results for `O=C(NCC1CCNCC1)c1ccc(Nc2ncc(Cl)c(Nc3ccc4ncsc4c3)n2)cc1` [drawing 331] are more than 5 µM, 1.01 µM and 100%.
At EGFR, `NC1CCN(C(=O)c2cccc(Nc3ncc(Cl)c(Nc4ccc5ncsc5c4)n3)c2)CC1` [drawing 332] returned an IC50 of more than 5 µM. For the same compound, at ROS [2], half-maximal inhibition (IC50) was put at 0.165 µM and the inhibition at 5 µM came to 100%.
As to `NCC1CCN(C(=O)c2cccc(Nc3ncc(Cl)c(Nc4ccc5ncsc5c4)n3)c2)CC1` [drawing 333], the IC50 against EGFR was more than 5 µM; at ROS [2], 0.11 µM. Besides, on ROS [2], the inhibition at 5 µM is 100%.
The matching figures for `O=C(NCC1CCNCC1)c1cccc(Nc2ncc(Cl)c(Nc3ccc4ncsc4c3)n2)c1` [drawing 334]: more than 5 µM, 0.38 µM and 100%.
As a reminder, the EC50 is the concentration at which the effect is half-maximal. Take `C[C@H](O)CN(C[C@H](C)O)C(=O)c1cccc(Nc2nccc(Nc3ccc4ncsc4c3)n2)c1` [drawing 420]: the 50% effective concentration (EC50) worked out at 19 µM in test [3]; 14 µM in test [4]; 21 µM in test [5]; 31 µM in test [6]; 31 µM in test [7].
`O=C(c1cccc(Nc2nccc(Nc3ccc4ncsc4c3)n2)c1)N1CCCCCC1` [drawing 421]: the EC50 in test [3] is more than 100 µM; in test [4], 9 µM; in test [5] it was 25 µM; in test [6], 9 µM; in test [7], 81 µM.
Consider `Cc1cccc(Nc2nccc(Nc3cccc(C(=O)NC4CCN(C)CC4)c3)n2)c1` [drawing 422], for which the EC50 was found to be 20 µM in test [3]; 25 µM in test [4]; 18 µM in test [5]; 5 µM in test [6]; 60 µM in test [7].
Take `O=C(NCc1ccc(F)cc1)c1cccc(Nc2nccc(Nc3ccc4ncsc4c3)n2)c1` [drawing 423]: the EC50 in test [3] was 18 µM; in test [4] it was 6 µM; in test [5], 11 µM; in test [6], 9 µM; in test [7] it was 24 µM.
In the case of `CC(C)CN(CC(C)C)C(=O)c1cccc(Nc2nccc(Nc3ccc4ncsc4c3)n2)c1` [drawing 424], the EC50 in test [3] was 54 µM; in test [4], 15 µM; in test [5], 17 µM; in test [6] it was 22 µM; in test [7], more than 100 µM.
On the same counts, the results for `Cc1cccc(Nc2nccc(Nc3cccc(C(=O)N(C)CCCN(C)C)c3)n2)c1` [drawing 425] are more than 100 µM, 39 µM, 46 µM, 89 µM and more than 100 µM.
On the same counts, the results for `O=C(COc1ccccc1)NCC(c1cccs1)S(=O)(=O)c1ccc(Cl)cc1` (stereo not shown) [drawing 427] are more than 100 µM, more than 100 µM, 36 µM, 83 µM and 45 µM.
The matching figures for `Cc1cccc(C(=O)n2nc(-c3ccco3)nc2NCc2ccccc2)c1` [drawing 431]: more than 100 µM, more than 100 µM, more than 100 µM, more than 100 µM and more than 100 µM.
Regarding `O=C(c1ccccc1)n1nc(-c2ccco2)nc1NCc1ccc(Cl)cc1` [drawing 432], the EC50 in test [3], in test [4], in test [5], in test [6] and in test [7] was more than 100 µM in each case.
`O=C(NCC(c1cccs1)S(=O)(=O)c1ccc(F)cc1)c1ccccc1` (stereo not shown) [drawing 434]: the EC50 in test [3] was more than 100 µM; in test [4] it was 77 µM; in test [5], 30 µM; in test [6], 21 µM; in test [7], 54 µM.
Take `Clc1nccc(Nc2cc(C3CC3)[nH]n2)n1` [drawing 435]: the EC50 in test [3] is 63 µM; in test [4], 45 µM; in test [5] it was 29 µM; in test [6], more than 100 µM; in test [7] it was 31 µM.
On the same counts, the results for `Nc1ccc(Nc2nccc(Nc3cc(C4CC4)[nH]n3)n2)cc1` [drawing 436] are 1.9 µM, 0.4 µM, 5 µM, 10 µM and 30 µM.
The matching figures for `c1cc(Nc2cc(C3CC3)[nH]n2)nc(Nc2ccc(NCc3cc(C4OCCO4)c(C4OCCO4)s3)cc2)n1` [drawing 437]: 14 µM, 13 µM, 13 µM, 14 µM and 18 µM.
In the case of `O=C(c1cccc(Nc2nccc(Nc3ccc4ncsc4c3)n2)c1)N1CCCCC1` [drawing 438], the EC50 was more than 100 µM in test [3]; 19 µM in test [4]; 20 µM in test [5]; 12 µM in test [6]; 52 µM in test [7].
The matching figures for `C[C@@H](Oc1cc(-c2cnn(C3CCNCC3)c2)cnc1N)c1c(Cl)ccc(F)c1Cl` [drawing 491]: 11.9 µM, 15 µM, 12 µM, 20 µM and 13 µM.
